Experimental data taken from PMC10769483, “Death by a thousand cuts through kinase inhibitor combinations that maximize selectivity and enable rational multitargeting” (eLife, 2023).

Tests used:
[1] = test system: CDC2L5 and TRKC
[2] = test system: ABL1(F317L), FYN, and LYN; assay: MMS multiple-target analysis, Davis et al. dataset

Compound	concentration of component in Mixture B required to inhibit all on-targets by at least 90% [1] [nM]	concentration of component in Mixture A required to inhibit all on-targets by at least 90% [2] [nM]
Cc1ccc(F)c(NC(=O)Nc2ccc(-c3cccc4[nH]nc(N)c34)cc2)c1 [ABT-869, Linifanib]	226	
COc1cc2c(Oc3ccc(NC(=O)C4(C(=O)Nc5ccc(F)cc5)CC4)cc3F)ccnc2cc1OCCCN1CCOCC1 [EXEL-2880/GSK-1363089, Foretinib]	40.0	
CSc1cccc(Nc2ncc3cc(-c4c(Cl)cccc4Cl)c(=O)n(C)c3n2)c1 [PD-173955]		4.69
Cc1ccc(NC(=O)c2ccc(CN3CCN(C)CC3)cc2)cc1Nc1nc(-c2cccnc2)cs1 [masatinib, Masitinib]		661
